Test results from EPA's ToxRefDB 2.

What was measured:
rat [1] = details: Subchronic oral toxicity in rodents, sprague dawley, Gavage/Intubation, dose end: 19 GD
rabbit [2] = details: Prenatal developmental toxicity study, new zealand white, Oral, Water, dose end: 19 GD
rat [3] = details: Multigenerational reproductive toxicity study, sprague dawley, Oral, Feed, dose end: 2 generation, systemic / hematology / erythrocyte (rbc) count differential / erythrocyte (rbc) + systemic / hematology / hematocrit (hct) / hematocrit (…
rat [4] = details: Combined chronic toxicity/carcinogenicity, fischer, Oral, Feed, dose end: 104 week
rat [5] = details: Subchronic oral toxicity in rodents, sprague dawley, Feed, dose end: 6 month
dog = details: Chronic toxicity, beagle, Oral, Feed, dose end: 24 month
rabbit [6] = details: Prenatal developmental toxicity study, himalayan, Oral, Gavage/Intubation, dose end: 28 GD
rat [7] = details: Prenatal developmental toxicity study, wistar, Oral, Gavage/Intubation, dose end: 19 GD
rat [8] = details: Multigenerational reproductive toxicity study, wistar, Oral, Feed, dose end: 2 generation
[9] = group: developmental, developmental / developmental malformation / bone / ossification sites + developmental / developmental malformation / bone / supernumerary
[10] = group: systemic, systemic / in life observation / body weight / body weight + systemic / in life observation / body weight / body weight gain + systemic / in…
[11] = group: developmental, developmental / developmental malformation / other / other + systemic / in life observation / body weight / fetal weight
[12] = group: maternal, systemic / in life observation / clinical signs / defecation + systemic / in life observation / food consumption / food consumption + …
[13] = group: cholinesterase, cholinesterase / cholinesterase / cholinesterase / brain cholinesterase (che) + cholinesterase / cholinesterase / cholinesterase / plasma …
[14] = group: cholinesterase, cholinesterase / cholinesterase / cholinesterase / plasma cholinesterase (che)
[15] = group: systemic, systemic / clinical chemistry / cholesterol / cholesterol + systemic / hematology / erythrocyte (rbc) count differential / erythrocyte (rbc…
[16] = group: cholinesterase, cholinesterase / cholinesterase / cholinesterase / erythrocyte cholinesterase (che) + cholinesterase / cholinesterase / cholinesterase / …
[17] = group: systemic, systemic / clinical chemistry / alanine aminotransferase (alt/sgpt) / alanine aminotransferase (alt/sgpt)
[18] = group: cholinesterase, cholinesterase / cholinesterase / cholinesterase / erythrocyte cholinesterase (che)
[19] = group: systemic, systemic / organ weight / liver / absolute + systemic / organ weight / liver / relative to body weight
[20] = group: developmental, developmental / developmental malformation / liver / [other]
[21] = group: maternal, reproductive / reproductive performance / aborted / aborted + systemic / in life observation / body weight / body weight gain + systemic / …
[22] = group: developmental, developmental / developmental malformation / aortic arch / narrowed + developmental / developmental malformation / bone / [other] + …
[23] = group: developmental, developmental / developmental malformation / bone / incomplete ossification + developmental / developmental malformation / bone / wavy + …
[24] = group: maternal, systemic / in life observation / body weight / body weight + systemic / in life observation / body weight / body weight gain + systemic / in…
[25] = group: offspring, systemic / in life observation / body weight / offspring (pup) weight + systemic / in life observation / body weight / offspring (pup) …
[26] = group: parental, systemic / in life observation / body weight / body weight gain

Work on `CC(=O)OC(C)(C)C` [tert-Butyl acetate] yielded an LEL (rat [1]; [9]) of 800 mg/kg/day, an LOAEL (rat [1]; [9]) greater than 1600 mg/kg/day and an NEL (rat [1]; [9]) of 400 mg/kg/day. It also gave an NOAEL (rat [1]; [9]) of no less than 1600 mg/kg/day, an LEL (rat [1]; [10]) of 1600 mg/kg/day and an LOAEL (rat [1]; [10]) greater than 1600 mg/kg/day. It also gave an NEL (rat [1]; [10]) of 800 mg/kg/day and an NOAEL (rat [1]; [10]) of no less than 1600 mg/kg/day.
`[Na+].[O-][Cl+][O-]` [Sodium chlorite] gave an LEL (rabbit [2]; [11]) of 35.5 mg/kg/day, an LOAEL (rabbit [2]; [11]) of 35.5 mg/kg/day and an NEL (rabbit [2]; [11]) of 13 mg/kg/day. For the same compound, the NOAEL (rabbit [2]; [11]) was 13 mg/kg/day, the LEL (rabbit [2]; [12]) was 35.5 mg/kg/day and the LOAEL (rabbit [2]; [12]) was 35.5 mg/kg/day. It also gave an NEL (rabbit [2]; [12]) of 13 mg/kg/day and an NOAEL (rabbit [2]; [12]) of 13 mg/kg/day.
In the case of `O=C(Nc1ccc(F)cc1)c1cccc(Oc2cccc(C(F)(F)F)c2)n1` [Picolinafen], the LEL (rat [3]; group: offspring) is reported as 21 mg/kg/day, the LOAEL (rat [3]; group: offspring) is reported as greater than 43 mg/kg/day and the NEL (rat [3]; group: offspring) is reported as 4.3 mg/kg/day. It also gave an NOAEL (rat [3]; group: offspring) of no less than 43 mg/kg/day, an LEL (rat [3]; group: parental) of 19 mg/kg/day and an LOAEL (rat [3]; group: parental) of 19 mg/kg/day. The NEL (rat [3]; group: parental) was 3.7 mg/kg/day and the NOAEL (rat [3]; group: parental) was 3.7 mg/kg/day.
Compound `CCOP(=S)(OCC)Oc1nc(Cl)c(Cl)cc1Cl` [Chlorpyrifos] has an LOAEL (rat [4]; [13]) of 1 mg/kg/day, an NEL (rat [4]; [13]) of 0.05 mg/kg/day and an NOAEL (rat [4]; [13]) of 0.1 mg/kg/day. For the same compound, the LEL (rat [4]; [14]) was 0.1 mg/kg/day, the LEL (rat [4]; group: systemic, systemic / clinical chemistry / cholesterol / cholesterol + systemic / clinical chemistry / alkaline phosphatase (alp/alk) / alkaline …) was 1 mg/kg/day and the LOAEL (rat [4]; [15]) was greater than 10 mg/kg/day. For the same compound, the NOAEL (rat [4]; [15]) was no less than 10 mg/kg/day, the NEL (rat [4]; group: systemic, systemic / clinical chemistry / cholesterol / cholesterol + systemic / in life observation / body weight / body weight + systemic / …) was 0.1 mg/kg/day and the LEL (rat [5]; [16]) was 0.75 mg/kg/day. The LOAEL (rat [5]; [16]) was 0.75 mg/kg/day, the NEL (rat [5]; [16]) was 0.15 mg/kg/day and the NOAEL (rat [5]; [16]) was 0.15 mg/kg/day. The LEL (rat [5]; [17]) was 0.15 mg/kg/day, the LOAEL (rat [5]; [17]) was greater than 0.75 mg/kg/day and the NEL (rat [5]; [17]) was 0.03 mg/kg/day. The NOAEL (rat [5]; [17]) was no less than 0.75 mg/kg/day, the LEL (dog; [18]) was 0.01 mg/kg/day and the NEL (dog; [18]) was less than 0.01 mg/kg/day. The LOAEL (dog; [14]) was 0.03 mg/kg/day, the NOAEL (dog; group: cholinesterase, cholinesterase / cholinesterase / cholinesterase / plasma cholinesterase (che) + cholinesterase / cholinesterase / cholinesterase / …) was 0.01 mg/kg/day and the LEL (dog; [19]) was 3 mg/kg/day. It also gave an LOAEL (dog; [19]) greater than 3 mg/kg/day, an NEL (dog; [19]) of 1 mg/kg/day and an NOAEL (dog; [19]) of no less than 3 mg/kg/day.
`CCOC(=O)OC1=C(c2cc(C)ccc2C)C(=O)NC12CCC(OC)CC2` (configuration not stated) [Spirotetramat] gave an LEL (rabbit [6]; [20]) of 160 mg/kg/day, an LOAEL (rabbit [6]; [20]) greater than 160 mg/kg/day and an NEL (rabbit [6]; [20]) of 40 mg/kg/day. The NOAEL (rabbit [6]; [20]) was no less than 160 mg/kg/day, the LEL (rabbit [6]; [21]) was 40 mg/kg/day and the LOAEL (rabbit [6]; [21]) was 40 mg/kg/day. For the same compound, the NEL (rabbit [6]; [21]) was 10 mg/kg/day, the NOAEL (rabbit [6]; [21]) was 10 mg/kg/day and the LOAEL (rat [7]; [22]) was 1000 mg/kg/day. For the same compound, the NOAEL (rat [7]; [22]) was 140 mg/kg/day, the LEL (rat [7]; [23]) was 20 mg/kg/day and the NEL (rat [7]; [23]) was less than 20 mg/kg/day. For the same compound, the LEL (rat [7]; group: maternal, systemic / in life observation / body weight / body weight) was 140 mg/kg/day, the LOAEL (rat [7]; [24]) was 1000 mg/kg/day and the NEL (rat [7]; [24]) was 20 mg/kg/day. It also gave an NOAEL (rat [7]; [24]) of 140 mg/kg/day, an LOAEL (rat [8]; [25]) of 487 mg/kg/day and an NEL (rat [8]; [25]) of 19.3 mg/kg/day. The NOAEL (rat [8]; [25]) was 79.5 mg/kg/day, the LEL (rat [8]; group: offspring, systemic / in life observation / body weight / offspring (pup) weight gain) was 79.5 mg/kg/day and the LEL (rat [8]; [26]) was 419 mg/kg/day. The LOAEL (rat [8]; [26]) was 419 mg/kg/day, the NEL (rat [8]; [26]) was 70.7 mg/kg/day and the NOAEL (rat [8]; [26]) was 70.7 mg/kg/day.
